In publication PMC12591170, “Glabridin‐Gold(I) Complex as a Novel Immunomodulatory Agent Targeting TrxR and MAPK Pathways for Synergistic Enhancement of Antitumor Immunity” (Advanced Science, 2025):

Legend:
TrxR = target: T1, TrxR (Homo sapiens, UniProt Q16881); test: CETSA and ITDR assay, TrxR; assay type: binding; settings: HepG2 proteins, 8 µM, ITDR at 78 °C
T1 construct: endogenous in cells; host or cells: HepG2
T1 sequence (Q16881 151-649 limits assumed): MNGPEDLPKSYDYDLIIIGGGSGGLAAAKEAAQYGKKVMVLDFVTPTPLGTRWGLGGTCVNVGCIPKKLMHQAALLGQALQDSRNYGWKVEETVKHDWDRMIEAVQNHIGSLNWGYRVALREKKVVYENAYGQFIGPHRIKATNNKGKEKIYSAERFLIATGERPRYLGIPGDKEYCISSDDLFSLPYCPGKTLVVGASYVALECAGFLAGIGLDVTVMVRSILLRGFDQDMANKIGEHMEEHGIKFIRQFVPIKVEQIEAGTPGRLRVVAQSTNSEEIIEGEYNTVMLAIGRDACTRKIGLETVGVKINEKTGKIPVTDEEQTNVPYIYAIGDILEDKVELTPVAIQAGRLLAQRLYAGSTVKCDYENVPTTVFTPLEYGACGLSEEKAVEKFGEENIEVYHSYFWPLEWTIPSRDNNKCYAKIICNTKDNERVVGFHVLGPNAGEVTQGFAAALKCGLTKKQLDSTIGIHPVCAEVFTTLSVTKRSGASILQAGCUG
Method: The treated HepG2 cells in 10 cm culture dishes were collected and washed with PBS. The collected cells were repeatedly frozen and thawed for 3 times by liquid nitrogen and 37 °C water bath. Then, proteins were isolated by centrifugation. The isolated proteins were divided into different tubes and incubated with same concentration of 6d at different temperature. Western blot was applied for CETSA by analyzing the band intensity of different temperature groups.
The temperature, which results in significant band differences between 6d and control group, was selected for ITDR assay. The isolated proteins were divided into different tubes and incubated with different concentration of 6d at same temperature. The binding between 6d and target protein was assessed by analyzing the band intensity of different concentration groups.

phosphorylated Akt = test: Western blot of phosphorylated Akt in HepG2; assay type: cell-based, human; settings: HepG2, 24 h; GLA at 8 µM
Method: (§1) HepG2 cells were incubated in 6 cm culture dishes and treated with different complexes. The treated cells were lysed with lysis buffer (RIPA:PMSF:phosphatase inhibitor:protease inhibitor = 100:1:1:1). The lysed cells were further broken by sonication, and proteins were isolated by centrifugation. The protein concentrations were detected by BCA assay. 10% SDS PAGE gel was usually applied to separate the different kDa of proteins, and more than 200 kDa of proteins were separated using 8% SDS PAGE gel. After seperation, proteins were transferred onto polyvinylidene difluoride (PVDF) membranes. The target proteins were labeled by various specific primary antibodies at 4 °C overnight. Then, the membranes were treated with anti‐rabbit or anti‐mouse secondary antibody for 2 h. Tris buffered saline with tween 20 (TBST) was applied to wash the membranes after each operation above. The target proteins’ bands were detected by the enhanced chemiluminescence (ECL) procedure.

HIF-1α = test: Western blot of HIF-1α in HepG2; assay type: cell-based, human; settings: HepG2, 24 h
Method: as §1

[1] = system: immune cells in Hepa1-6 tumor and spleen tissue; test: In vivo immune cell and marker analysis (flow cytometry, immunofluorescence, immunohistochemistry); parameters: species or system C57BL/6 mice
Method: All mice were 6–8 weeks old males and procured from Hangzhou Medical College, located in Hangzhou, China. […] 2 × 10^6 Hepa1‐6 cells in 100 µL DMEM were subcutaneously seeded in underarms of C57BL/6 mice. […] Meanwhile, the mice weights and tumor volume were recorded, and the calculation formula of tumor volume was Volume = Width^2 × Length/2. After 13 days, all mice were sacrificed for collection of tumors, hearts, livers, spleens, lungs and kidneys. Collagenase IV (1 mg mL^−1) and DNase I (1 µg mL^−1) were applied to digest a part of the tumor tissue into cell suspension, and lysis buffer was used to remove red blood cells. The prepared cells above were stained with antibodies (anti‐CD3e‐FITC, and anti‐CD8a‐PE; anti‐CD11c‐APC, anti‐CD80‐PE, and anti‐CD86‐FITC; anti‐CD45‐Percp, anti‐CD11b‐APC, and anti‐Ly‐6G/Ly‐6C(Gr‐1)‐FITC; anti‐CD11b‐APC, anti‐CD206‐PE, and CD86‐FITC). CD3^+CD8^+ T cells, CD80^+CD86^+ DCs, CD11b^+Gr‐1^+ MDSCs, CD206^−CD86^+ M1‐type macrophages and CD206^+CD86^− M2‐type macrophages were analyzed by flow cytometry. Then, another part of tumor tissues were fixed with 4% paraformaldehyde, embedded in paraffin, cut into slices and stained with antibodies for immunofluorescence and immunohistochemistry analysis.

[2] = mouse, in vivo
[3] = flow cytometry and immunofluorescence

In the case of `CCn1ccn(CCCCCOc2ccc([C@@H]3COc4c(ccc5c4C=CC(C)(C)O5)C3)c(OCCCCCn3ccn(CC)[c]3=[Au][Br])c2)[c]1=[Au][Br]` [6d], the “binding to TrxR (CETSA, ITDR)” value (TrxR) is reported as “significant binding”, the “Akt phosphorylation (western blot)” value (phosphorylated Akt) is reported as “inhibited Akt phosphorylation” and the “HIF-1α expression (western blot)” value (HIF-1α) is reported as “significantly inhibited”. For the same molecule, the “DC maturation in spleen and tumor tissues” value [1, 3] was “induced DC maturation”, the “macrophage polarization in tumor” value [1, 3] was “significantly promoted M1‐type macrophage polarization” and the “T lymphocyte infiltration in tumor” value ([1]; flow cytometry and immunohistochemistry) was “promoted T lymphocyte infiltration”. The “Arg-1 expression in tumor tissue” value ([1]; immunofluorescence) was “downregulation”, the “CRT exposure in tumor tissue” value ([1]; immunofluorescence) was “promoted CRT exposure” and the “GzmB expression in tumor tissue” value ([1]; immunofluorescence, OXA vs model group, 6d vs OXA group) was “significantly upregulated GzmB expression”. The “MDSC infiltration in tumor” value ([1]; vs model group, 13 days) was “reducing the infiltration”, the “Treg infiltration in tumor (Foxp3)” value ([1]; vs model group, 13 days) was “reducing the infiltration” and the safe dose [2] was 5 mg/kg.
